Measured values published in patent EP0537980A1, “Cyclohexaneacetic acid derivatives as inhibitors of fibrinogen-dependent blood platelet aggregation” (GLAXO GROUP LIMITED, priority 1991, dated 1993).
Structures can show the parent of a compound that is named as a salt.

Test system: human gel filtered platelets (GFP)
Experiment: Inhibition of ADP-induced, fibrinogen-dependent blood platelet aggregation in human gel filtered platelets (GFP)
Type: cell-based
Conditions: fibrinogen 0.5mg/ml, compounds incubated 5 minutes at 37°C, ADP 1 x 10⁻⁵M, concentration required to produce 50% inhibition of platelet aggregation, read-out: IC₅₀
Experimental: Inhibition of blood platelet aggregation by compounds of the invention was determined according to the following procedure. Citrated whole blood (1 part 3.8% trisodium citrate: 9 parts blood) was obtained from human volunteers, free of medication for at least 10 days prior to collection. The blood was incubated with 0.1mM aspirin and 0.05µM prostacyclin and then centrifuged at 1000g for 4 minutes (20°C). The supernatant platelet rich plasma (PRP) was further centrifuged at 1300g for 10 minutes (20°C) to sediment the platelets. The supernatant was discarded and the pellet washed with a physiological salt solution (HEPES 5mM, NaHCO₃ 12mM, NaCl 140mM, KH₂PO₄ 0.74mM, D-Glucose 5.6mM, KCl 2.82mM and BSA 20g/l, pH 7.4) to remove residual plasma. After washing, the pellet was resuspended in physiological salt solution and then applied to a sepharose CL-2B column, pre-equilibrated with physiological salt solution at room temperature. The platelets (GFP) eluted within the void volume and were diluted to approximately 300,000 platelets/µl in buffer. Purified human fibrinogen (Knight L.C. et al, 1981 Thromb. Haemostasis, 46(3), 593-596) was added to a final concentration of 0.5mg/ml together with Ca2+ and Mg2+ at 1mM and 0.5mM respectively. […] The potency of the compounds may be expressed as an IC₅₀ value, defined as the concentration of compound required to produce 50% inhibition of platelet aggregation.

Compound | IC50
N=C(N)c1ccc(N2CCN(C3CCC(O)(CC(=O)O)CC3)CC2)c(Br)c1 (stereo not drawn) [Example 2, cis-4-[4-[4-(Aminoiminomethyl)-2-bromophenyl]-1-piperazinyl]-1-hydroxycyclohexaneacetic acid, trifluoroacetate salt] | 945 nM
N=C(N)c1ncc(N2CCN(C3CCC(O)(CC(=O)O)CC3)CC2)cn1 (stereo not drawn) [Example 3, cis-4-[4-[2-(Aminoiminomethyl)-5-pyrimidinyl]-1-piperazinyl]-1-hydroxycyclohexaneacetic acid, trifluoroacetate salt] | 543 nM
N=C(N)c1ccc(C2CCN(C3CCC(O)(CC(=O)O)CC3)CC2)cc1 (stereo not drawn) [Example 4, cis-4-[4-[4-(Aminoiminomethyl)phenyl]-1-piperidinyl]-1-hydroxycyclohexaneacetic acid, trifluoroacetate salt] | 13 nM
N=C(N)c1ccc(N2CCN([C@H]3CC[C@@](O)(CC(=O)O)CC3)CC2)cn1 [Example 5, cis-4-[4-[2-(Aminoiminomethyl)-5-pyridinyl]-1-piperazinyl]-1-hydroxycyclohexaneacetic acid, trifluoroacetate salt] | 220 nM
N=C(N)c1ccc(N2CCN(C3CCC(O)(CC(=O)O)CC3)CC2)c(-c2ccccc2)c1 (centres unmarked) [Example 6, trifluoroacetate salt] | 1550 nM
